In patent US20070059299A1, “S-adenosyl methionine decarboxylase inhibition for the treatment of a herpes simplex virus infection” (Institut National de la Sante et de la Recherche Medicale …, priority 2002, published 2007):
Where two headings read alike, the source gives them in different places.

Tests used:
[1] = test system: HSV-1 macroplaque strain (MP); type: cell-based; settings: for less syncytia formed than in control infected without MGBG: no pre-treatment, 24 h
Protocol: HEp2 cells were grown as monolayers in Eagle's minimum essential medium (E-MEM) supplemented or not with 5% heat-inactivated foetal calf serum (FCS) and supplemented with 100 U/ml penicillin and 100 U/ml streptomycin. The cells were maintained at 37° C. under 5% CO2. The HSV-1 macroplaque strain (MP), obtained from B. Jacquemont (Lyon, France), was a gift of B. Roizman (Chicago, Ill., U.S.A.), and was used throughout this study. Viruses were grown in HEp2 cells.
HEp2 cells were grown in 6-well plates (˜10^6 cells/well) and infected just before confluence with a multiplicity of infection (m.o.i.) of 0.5 plaque-forming units (PFU) per cell in E-MEM in absence of FCS, except for some experiments. After adsorption of the virus for 1 h at 33° C. under 5% CO2, the medium containing the virus suspension was removed and the cells were washed with E-MEM, then incubated in E-MEM without FCS at 37° C. for different periods of times until harvest. Times post-infection (p.i.) were calculated from the time of addition of the virus suspension. HEp2 cells were exposed to MGBG treatment for different times. When cells were pre-treated with MGBG prior infection, MGBG was added to cell medium 6 h or 24 h prior infection until harvest. In non pre-treated cells, MGBG was added simultaneously with virus suspension, or 2 h, 4 h or 6 h latter. When cells were treated for more than 24 h, medium was replaced every 24 h with fresh medium containing the same concentration of MGBG.
Accordingly, the effect of inactivation of enzymes involved in polyamine biosynthesis upon HSV-1 infection inhibition was assessed. The HSV-1 MP strain was used throughout this study for its ability to induce the formation of large syncytia from infected cells. Therefore, it was possible to easily and quickly investigate the inhibition of viral replication at the level of syncytia formation.
To investigate the effect of the concentration of MGBG on viral infection, HEp2 cells were infected with 0.5 PFU of HSV-1 per cell in FCS free medium in which 10 μM to 300 μM MGBG was added from the adsorption step of the virus until the end of the experiment. After 24 h of infection, the formation of syncytia was observed, and the number of syncytia was estimated by counting using the optical microscope.
HEp2 cell were pre-treated with MGBG by incubation in FCS free medium containing 10 to 300 μM MGBG 6h to 24 h before infection. Then cells were infected as described above and MGBG was maintained in the medium until the end of the experiment.

intracellular spermine = test: Spermine quantitation in HEp2 cells exposed to MGBG (dansylation, RP-HPLC); type: cell-based; settings: for Relative amount of intracellular spermine, HSV infected + MGBG / Relative amount of intracellular spermine, Mock infected + MGBG: HEp2 cells, mock-infected cells without MGBG = 100%, means±SE, 3 experiments; for Relative amount of intracellular spermine, HSV infected + MGBG: 100 μM MGBG added with virus
Protocol: HEp2 cells were grown in 6-well plates (˜10^6 cells/well). Cells were infected or treated with 100 μM MGBG for 12 h or 24 h. For HSV-1-infected cells, MGBG was added simultaneously with viral suspension. Cell extracts and standards (spermine and diaminoheptane as an internal standard, (DAH)) were dansylated according to the procedure described by Seiler (Seiler, 1970) and were then treated using the protocol adapted from Besson (Besson et al., 1986). Dansylation was proceeded in glass vials by mixing 40 μl of HClO4 extracts, 10 μl of DAH , and 100 μl of 0.3 M Na2CO3 (Merck). The reaction was initiated by adding 200 μl of freshly prepared dansyl chloride solution (5mg/ml) in acetone (SDS, spectrosol grade) and allowed to proceed overnight in the dark at room temperature. After dansylation, each sample was diluted with 700 μl H2O, vortexed and applied to a Waters Sep-Pak C18 cartridge (Birnbaum et al., 1988). After washing with 4 ml of 20% methanol, the polyamine containing fraction was eluted with 2 ml of 100% methanol. The separation of polyamines and the quantification of spermine were performed by reverse phase high performance chromatography (RP-HPLC) using a Waters system composed of two models 510 pumps, a Wisp 700 autosampler and a NEC APC4 data module recorder integrator. A Merck F 1050 fluorescence spectrophotometer detected fluorescence (350 nm excitation and 495 nm emission). The separations were performed on a RP18 Merck Lichrocart (25×4 mm, 5 μm) precolumn and a RP18, 100 CH Merck column (125×4 mm; spherical packing 5 μm). The solvent system was an acetonitrile/water gradient at a flow rate of 1 ml/min of acetonitrile 60% in water for 7 min, then acetonitrile 90% for 10 min and a 98% acetonitrile purge for 5 min. The column was reequilibrated to initial 60% acetonitrile conditions during 10 min between two successive injections. For each determination, 50 or 100 μl of dansylated samples were injected onto the column equilibrated in 60% acetonitrile. Spermine was identified by its retention time compared to that of standard spermine. Peak areas were automatically measured by the integrator and evaluated according to the calibration method (Birnbaum et al., 1988). Spermine standard from 10 to 70 pmol was reacted and chromatographed to establish linear standard curve which was used to estimate the absolute amounts of spermine. The absolute limit of detection per injection was 1 pmol for dansylated spermine. Two blank injections were routinely run between calibrations and sample analysis. Mock-infected cells grown in the absence of MGBG were used as the control of intracellular spermine content and was therefore used as 100% value.
MGBG is known to alter the polyamine synthesis in inactivating SAMDC. Therefore, the amount of intracellular spermine was assessed in mock-infected and infected cells after MGBG exposure. Cells were grown for 12 h and 24 h in the presence of 100 μM MGBG which was added to cell medium simultaneously with virus particles for HSV-1 infected cells. Intracellular spermine content was estimated by standard procedure (Besson et al., 1986; Birnbaum et al., 1988; Seiler, 1970).

CC(C=NNC(=N)N)=NNC(=N)N [MGBG, methylglyoxal bis(guanylhydrazone)]
size and number of syncytia ([1]; 10 μM MGBG added simultaneously with virus, 0.5 PFU/cell, FCS free, 24 h of infection): the size but not the number of syncytia was reduced
less syncytia formed than in control infected without MGBG ([1]; 50 μM MGBG added with virus, 0.5 PFU/cell, FCS free): 50%
viral replication (syncytia) ([1]; 100 μM MGBG added 2 h after the beginning of infection): totally inhibited
viral replication (syncytia) ([1]; 100 μM MGBG added 4 h or 6 h after the adsorption step): partially inhibited
less syncytia formed than in control infected without MGBG ([1]; 100 μM MGBG added with virus, 0.5 PFU/cell, FCS free): 95%
viral infection compared to cells infected without MGBG ([1]; 100 μM MGBG alone added simultaneously with viral suspension): strongly reduced
less syncytia formed than in control infected without MGBG ([1]; 200 μM MGBG added with virus, 0.5 PFU/cell, FCS free): about 99%
inhibition of viral infection in cells grown with 5% FCS compared with FCS free medium ([1]; 5% FCS, different concentrations of MGBG): significantly less efficient
antiviral effect of MGBG and ACV in combination versus alone (syncytia formation) ([1]; HEp2 cells, 0.5 PFU of HSV-1 per cell): potentiates the antiviral effect of ACV
HSV-1 infection of HEp2 cells in the presence of MGBG ([1]; MGBG at micromolar concentration): inhibited
inhibition of viral infection ([1]; cells pre-treated for 6 and 24 h with at least 25 μM MGBG): more than 80%
syncytia formed compared to cells infected in the absence of MGBG ([1]; cells pre-treated for 6 h with 10 μM MGBG, FCS free): 70%
syncytia formed compared to cells infected in the absence of MGBG ([1]; cells pre-treated for 24 h with 10 μM MGBG, FCS free): 36%
amount of intracellular spermine relative to control mock-infected cells grown without MGBG (intracellular spermine; 100 μM MGBG, both mock-infected and HSV-1-infected cells): 60-65%
Relative amount of intracellular spermine, HSV infected + MGBG (intracellular spermine; 12 h): 61.8 ± 9.0%
Relative amount of intracellular spermine, HSV infected + MGBG (intracellular spermine; 24 h): 66.2 ± 7.0%
Relative amount of intracellular spermine, Mock infected + MGBG (intracellular spermine; 100 μM MGBG, 12 h): 60.6 ± 1.4%
Relative amount of intracellular spermine, Mock infected + MGBG (intracellular spermine; 100 μM MGBG, 24 h): 65.3 ± 14.3%
